Laboratory results taken from patent publication US5585492A, “LTA4 Hydrolase inhibitors” (priority 1994, dated 1996).
pIC50: −log10 of the molar value.

test system: LTB4 production in human blood; assay: Inhibition of Calcium Ionophore-Induced LTB4 Production in Human Blood (HWB); assay type: cell-based; details: Homo sapiens, human whole blood, A23187 20 mcg/ml; read-out: Inhibition of Calcium Ionophore-Induced LTB4 Production in Human Blood IC50 HWB
Procedure: One or more concentrations of the leukotriene A4 hydrolass inhibitor compounds being tested were prepared (diluted in DMSO) and 2 μl added and gently mixed with the diluted whole blood. After incubating for 15 minutes at 37° C. in a humidified incubator, calcium ionophore A23187 (Sigma Chemical Co., St. Louis, Mo.) was added to a final concentration of 20 mcg/ml and the incubation continued under the same conditions for an additional 10 minutes to allow LTB4 formation. The reaction was terminated by centrifugation (833 g, 10 minutes at 4° C.) and supernatant were analyzed for LTB4 and thromboxane by commercially available enzyme-linked immunoassays (Caymen Chemical Co., Ann Arbor, Mich.) according to the manufacturer's instructions. The IC50 of each test compound was determined from the amount of inhibition of LTB4 production as compared to an essentially identical assay in which no inhibitor compound was present.

SMILES | pIC50
c1ccc2nc(Cc3ccc(OCCN4CCCC4)cc3)ccc2c1 [Example 131] | 4.60
CC(=O)N[C@H]1C[C@@H](C)N(CCOc2ccc(Cc3ccccc3)cc2)[C@@H](C)C1 [Example 315] | 6.19
c1ccc(Cc2ccc(OCCN3CC4CCC3C4)cc2)cc1 (stereo not drawn) [Example 499] | 6.66
OCC1CCCN1CCOc1ccc(Cc2ccccc2)cc1 (stereo not drawn) [Example 385] | 6.68
NC(=O)N1CCN(CC2Cc3cc(Cc4ccccc4)ccc3O2)CC1 (stereo not drawn) [Example 337] | 6.20
Fc1ccccc1Cc1ccc(OCCN2CCCC2)cc1 [Example 141] | 6.55
c1ccc(Cc2ccc(OCCn3cnc4ccccc43)cc2)cc1 [Example 339] | 4.88
O=C(O)C1C2CN(CCOc3ccc(Cc4ccccc4)cc3)CC21 (stereo not drawn) [Example 435] | 7.07
[O-][S+](CCN1CCCC1)c1ccc(Cc2ccccc2)cc1 (stereo not drawn) [Example 69] | 4.93
CC1CC(C#N)CCN1CCOc1ccc(Cc2ccccc2)cc1 (stereo not drawn) [Example 444] | 6.05
CCOC(=O)CCN(CCCOc1ccc(Cc2ccccc2)cc1)Cc1cccnc1 [Example 414] | 6.08
c1ccc(Oc2ccc3c(c2)CC(CN2CCCC2)O3)cc1 (stereo not drawn) [Example 289] | 6.50
COc1ccc(Cc2ccc(OCCN3CCCC3)cc2)cc1F [Example 144] | 6.05
CCOC(=O)C1CCN(CC2Cc3cc(Cc4ccccc4)ccc3O2)CC1 (stereo not drawn) [Example 282] | 5.86
Brc1ccc(COc2ccc(OCCN3CCCC3)cc2)cc1 [Example 203] | 5.48
Cc1cc(Cc2ccccc2)ccc1OCCN1CCCC1 [Example 117] | 5.38
c1ccc(Oc2ccc(NCCN3CCCC3)cc2)cc1 [Example 71] | 5.37
O=C(Nc1ccccc1)OC[C@@H]1CCCN1CCOc1ccc(Cc2ccccc2)cc1 [Example 428] | 5.18
NC(=S)N1CCN(CCOc2ccc(Cc3ccccc3)cc2)CC1 [Example 458] | 5.86

SMILES | pIC50
c1ccc(Cc2ccc(OCCCn3cnc4ncccc43)cc2)cc1 [Example 341B] | 6.03
NC(=O)C1CCN(CC2CCc3cc(Cc4ccccc4)ccc3O2)CC1 (stereo not drawn) [Example 293] | 5.49
CCOC(=O)[C@@H]1CCN(CCOc2ccc(Cc3ccccc3)cc2)[C@H](C)C1 (relative stereo) [Example 298] | 6.12
c1ccc(Oc2ccc(OCCCn3cnc4ncccc43)cc2)cc1 [Example 350B] | 6.02
C1=CC2CC1CN2CCOc1ccc(Cc2ccccc2)cc1 (stereo not drawn) [Example 497] | 6.67
Fc1ccc(Oc2ccc(OCCn3ccc4ncnc-4c3)cc2)cc1 [Example 355C] | 6.68
NC(=O)C1CCN(CC2Cc3cc(Cc4ccccc4)ccc3O2)CC1 (stereo not drawn) [Example 281] | 6.78
c1ccc(COc2ccc(OCCn3cnc4ccncc43)cc2)cc1 [Example 347A] | 5.15
c1ccc(Cc2ccc(OCCCN3CCCC3)cc2)cc1 [Example 259] | 6.36
FC(F)(F)c1cccc(COc2ccc(OCCN3CCCC3)cc2)c1 [Example 209] | 5.63
Fc1ccc(Oc2ccc(OCCN3CCCC3)cc2)cc1 [Example 48] | 6.41
CNC(=O)C1CCN(CC2Cc3cc(Oc4ccccc4)ccc3O2)CC1 (stereo not drawn) [Example 296] | 6.29
CCOC(=O)C1CCN(CCOc2ccc(Cc3cccs3)cc2)CC1 [Example 310] | 5.87
CC1CC(C(N)=NO)CCN1CCOc1ccc(Cc2ccccc2)cc1 (stereo not drawn) [Example 445] | 6.44
COC(=O)C1(O)CCN(CCOc2ccc(Cc3ccccc3)cc2)CC1 [Example 305] | 5.91
c1ccc(Cc2ccc(OCCCn3cnc4cnccc43)cc2)cc1 [Example 356B] | 6.12
CC(CN1CCCCC1)Oc1ccc(Cc2ccccc2)cc1 (stereo not drawn) [Example 403] | 5.42
CCOC(=O)CCNCCCOc1ccc(Cc2ccccc2)cc1 [Example 265] | 6.35
CC1CCC(C)N1CCOc1ccc(Cc2ccccc2)cc1 (stereo not drawn) [Example 399] | 6.66

same assay, conditions: human whole blood, A23187 20 mcg/ml; read-out: Inhibition of Calcium Ionophore-Induced LTB4 Production in Human Blood IC50 HWB

SMILES | pIC50
CC(=O)NC1CCN(CCOc2ccc(Cc3ccccc3)cc2)C1 (stereo not drawn) [Example 256] | 6.38
